Laboratory results taken from US10550095B2, “Cancerous cell growth inhibiting compounds” (WISYS TECHNOLOGY FOUNDATION, INC., priority 2016, dated 2020).
Several values for one entry are separate records, joined by “and”; a condition that tells them apart may be missing. Equal values may be shown once. Entries after “also recorded” stand apart in the source; their conditions may differ.

Experiments:
[1] = tested on: transgenic melanoma zebrafish embryos; assay: Melanoma formation and recovery in transgenic melanoma zebrafish embryos; assay type: in vivo
Experimental: (§1) The intracellular signaling pathway that involves Raf and MEK is known to be the major pathway to regulate cell proliferation. Many current melanoma drugs such as cobimetinib works by inhibiting Raf or MEK. While they are effective in inhibiting melanoma growth, they exert different degrees of side effect on normal cells by inhibiting the Raf-MEK pathway. […] Also, with regard to FIG. 13, the compound SK-03-92 is shown to inhibit melanoma cell growth by approximately 10% at 10 μM and at 100% at 40 μM.

Akt = assay: Western blot for phosphorylated Akt in melanoma cells; assay type: cell-based, mouse; details: western blot (FIG. 19B)
B16-F10 melanoma cells [2] = assay: Melanin in melanoma cells; assay type: cell-based, mouse; details: for Melanin: melanoma cells
Excerpt: (MEK-I is a known MEK inhibitor as a comparison purchased from Sigma): […]

[3] = tested on: primary human melanocytes; assay: Growth of normal melanocytes; assay type: cell-based
Experimental: These cells proliferate slowly making it difficult to gather enough cells for experiments with all the A11 analogs. […] In the second experiment, A7 and a few other compounds were evaluated. […] At 10 μM, FSK-03-92 caused near 80% lethality (comparing with the 20% kill by 10 μM FSK-03-92 on melanoma cells in FIG. 14).

MAPK = assay: Western blot for phosphorylated MAPK in melanoma cells; assay type: cell-based, mouse; details: melanoma cells (FIG. 19A)
Excerpt: We wanted to further understand the molecular mechanism of A11 and its derivatives by examining the activities of MAPK, Akt, and PRPP pathways which regulate cell proliferation and cell death.
MAPK is involved in the major cell proliferation signaling pathway. In many cancer cells, MAPK is activated at high level by phosphorylation. Using the anti-phosphorylated-MAPK (p-MAPK) on western blot, it is very easy to understand the proliferation ability in cells. […] While the results are against our hypothesis and current understanding, it raises a very interesting mechanism of A11 which requires further investigation. […] The current understanding is that activated MAPK and Akt both lead to cell proliferation.

MITF [4] = assay: Western blot for MITF protein level in B16-F10 cells; assay type: cell-based, mouse; details: western blot vs DMSO control (FIG. 21)
Excerpt: (§2) To understand how A11 inhibits melanoma proliferation, we examined the MITF expression level in A11-treated B16-F10 cells by western blot and RT-qPCR.

MEK = MEK activity (FIG. 12)
Excerpt: FIG. 12 are photo illustrations of MEK activity with exemplary embodiments of the human drug treatments of the present invention; and
as §1

[5] = tested on: DCT (dopachrome tautomerase); assay: RT-qPCR of DCT in melanoma cells; assay type: cell-based, mouse
Excerpt: as §2
(§3) The results of several qPCR experiments using melanoma cells were compiled in FIG. 20. Pax3 and sox10 are genes determine the melanocyte precursors while mit-f is the specific transcription factor that initiates melanocyte differentiation. Dct and tyr genes are expressed in differentiated melanocytes. […] The decrease in magnitude is not significant likely due to the very heterogeneous cell types in melanoma.

tyrosinase [6] = assay: RT-qPCR of tyrosinase in melanoma cells; assay type: cell-based, mouse
Excerpt: as §2, §3

zebrafish embryos [7] = assay: Effect on existing melanin and/or melanocytes, embryos treated at 48 hpf (Protocol 2); assay type: in vivo
Experimental: (§4) The testing protocols for these compounds are as follows: • a. […] The embryos were monitored and imaged throughout their development to track the development of melanin pigment relative to a control group to which water was administered (Protocol 1). • b. To test the effects of the drugs on existing melanin and/or melanocytes, the embryos were treated with the chemicals at 48 hpf, after pigment had developed. The embryos were again monitored and imaged throughout their development relative to a control group to which water was administered (Protocol 2). • c. Additionally, to test the ability of the pigment to recover after being treated with our drugs, all embryos were treated at 24 hpf with the chemicals until the 48 hpf or 64 hpf time period, then washed with water to remove the treatment. The embryos were again monitored and imaged throughout their development relative to a control group to which water was administered (Protocol 3).
To test the effects of the drugs on existing melanin and/or melanocytes, the embryos were treated with the chemicals A11, MEK-I and PTU at 48 hpf, after pigment had developed. The embryos were again monitored and imaged throughout their development according to Protocol 2.

B16-F10 melanoma cells [8] = assay: cells; assay type: cell-based
zebrafish embryos [9] = assay: Pigment recovery after compound withdrawal (Protocol 3); assay type: in vivo; details: treated 24-48 hpf or 24-64 hpf, then washed, by 72 hpf
Experimental: as §4
It has been reported that melanin usually reappears after the withdrawal of skin whitening products. […] The pigmentation was monitored closely for 48-72 hours. Similarly, this experiment was repeated at least three times to gain a reproducible result.

zebrafish embryos [10] = assay: Skin Lightening Efficacy of All Analogs on Zebrafish Embryos (Table 1); assay type: in vivo; details: concentration not given
Experimental: as §4, with “To test the effects of the drugs on existing melanin and/or melanocytes, the embryos were treated with the chemicals at 48 hpf, after pigment had developed.” left out
(§5) The black pigment (or melanin) is very easy to observe in zebrafish. In brief, adult zebrafish are taken to breed embryos. Morphologically normal embryos of 24 hours post fertilization (hpf) stage were selected for incubation in the drugs from 24 to 76 hours. During the incubation, the embryos are monitored and imaged (see FIGS. 1 and 3) to track the development of melanin. […] To broaden the comparison with other skin-whitening products, this project can also test at least three other compounds, Kojic acid, Gallic acid and Haginin. […] In the meantime, the whole organism context also allows us to examine the toxicological profile, if any, of these compounds.

[11] = tested on: dct-expressing cells (differentiated melanocytes); assay: In situ hybridization for the dct gene in zebrafish embryos; assay type: in vivo; details: zebrafish embryos (FIG. 22)
Excerpt: To further understand the mechanism of A11, we examined the development of melanocytes by in situ hybridization for the dct (dopachrome tautomerase) gene which is expressed in differentiated melanocytes.

[12] = tested on: melanocytes in zebrafish embryos; assay: Mitotic index of melanocytes in zebrafish embryos; assay type: in vivo; details: zebrafish embryo (FIG. 17)
MITF [13] = assay: RT-qPCR of MITF (mit-f) in melanoma cells; assay type: cell-based, mouse
Excerpt: as §2, §3

tyrosinase [14] = assay: Effect on tyrosinase expression (FIG. 8)
Excerpt: FIG. 8 is a graph of the effects of various pigment reducing compositions on tyrosinase expression;
as §1

zebrafish embryos [15] = assay: Inhibition of melanin synthesis in zebrafish embryos, treated 24-76 hpf (Protocol 1); assay type: in vivo; details: zebrafish embryos treated 24-76 hpf
Experimental: as §4, with “To test the effects of the drugs on existing melanin and/or melanocytes, the embryos were treated with the chemicals at 48 hpf, after pigment had developed.” left out
as §5

Pax3 = assay: RT-qPCR of Pax3 in melanoma cells; assay type: cell-based, mouse
Excerpt: as §2, §3

[16] = tested on: melanocytes in zebrafish embryos; assay: TUNEL assay, melanocyte apoptosis in normal and transgenic melanoma-forming zebrafish embryos; assay type: in vivo; details: normal and transgenic melanoma-forming embryos (FIGS. 18A-18B)
melanoma cells = assay: Mitotic index of melanoma cells (anti-phospho-histone H3 antibody); assay type: cell-based, mouse; details: anti-phospho-histone H3 (FIG. 16)

COc1cc(O)cc(/C=C/Oc2ccccc2C)c1 [Analog A11, 2-Methylphenyl-E-(3-hydroxy-5-methoxy)-styryl Ether]
formation and recovery of melanoma (in words) [1]: inhibited the formation and recovery of melanoma; also recorded: inhibit both the formation of melanoma and the recovery of melanoma | phosphorylated Akt (in words) (Akt): slight increase of phosphorylated Akt | Melanin (B16-F10 melanoma cells [2]; 2 μM): 99% | Melanin (B16-F10 melanoma cells [2]; 10 μM): 104% and 84% and 97% and 95% and 100% | Melanin (B16-F10 melanoma cells [2]; 20 μM): 101% and 92% | Melanin (B16-F10 melanoma cells [2]; 40 μM): 84% and 68% and 56% | melanin in B16-F10 cells (in words) (B16-F10 melanoma cells [2]; mouse cell line B16-F10): decrease of melanin | toxicity to normal melanocytes (in words) [3]: does not seem to cause high toxicity | inhibition of growth of normal melanocytes (in words) ([3]; 10 μM): did not show any inhibition | amount of p-MAPK / MAPK activity (in words) (MAPK): significantly increase the MAPK activity; also recorded: increases the amount of p-MAPK | MITF protein level (in words) (MITF [4]): distinguishably lower | MEK activity (in words) (MEK): increasing MEK activity | DCT expression (in words) [5]: decreased | tyrosinase expression (in words) (tyrosinase [6]): decreased | existing pigment remaining (zebrafish embryos [7]): 20% | Average Melanoma growth (from the previous chart) (B16-F10 melanoma cells [8]; 2 μM): 86% | Average Melanoma growth (from the previous chart) (B16-F10 melanoma cells [8]; 10 μM): 88% | Average Melanoma growth (from the previous chart) (B16-F10 melanoma cells [8]; 20 μM): 81% | Average Melanoma growth (from the previous chart) (B16-F10 melanoma cells [8]; 40 μM): 50% | cell proliferation compared to the control (B16-F10 melanoma cells [8]; 40 μM (FIG. 14)): 50% | EC50 (B16-F10 melanoma cells [8]; Mus musculus, B16-F10, melanoma cells (FIG. 14), read-out: EC50 in inhibiting melanoma growth): ~40 µM | melanoma cell death (in words) (B16-F10 melanoma cells [8]; any of the tested concentrations): no cell death was observed | inhibition of melanoma cell growth / cell number (in words) (B16-F10 melanoma cells [8]; melanoma cells): decrease of melanin as well as the cell number | Growth (B16-F10 melanoma cells [8]; melanoma cells, 2 μM): 86% | Growth (B16-F10 melanoma cells [8]; melanoma cells, 10 μM): 88% and 92% and 101% and 69% | Growth (B16-F10 melanoma cells [8]; melanoma cells, 20 μM): 81% and 80% | pigmentation recovered after wash-off (zebrafish embryos [9]): 50% | pigmentation recovered after wash-off (zebrafish embryos [9]; listed as A-11): approximately 50% | Pigmentation (zebrafish embryos [10]): 10% | number of dct-expressing cells (in words) [11]: significantly lower than in the control | mitosis / mitotic index of melanocytes (in words) [12]: reduces mitosis | MITF (mit-f) mRNA expression (in words) (MITF [13]): lower amount of MITF mRNA; also recorded: expressed at high level; also recorded: decreases the expression of mit-f gene | tyrosinase formation (in words) (tyrosinase [14]): not to inhibit tyrosinase formation | pigmentation inhibition (in words) (zebrafish embryos [15]): nearly complete pigmentation loss; also recorded: inhibits pigmentation formation | Pigmentation (zebrafish embryos [15]; 10 μM): < 5% | Pax3 expression (in words) (Pax3): reduces Pax3 expression | melanocyte apoptosis / cell death (in words) [16]: does not induce apoptosis; also recorded: no significant difference | mitotic index of melanoma cells (in words) (melanoma cells): significantly lower mitotic index
